Like-named read-outs stand apart in the source and are kept apart here.
Columns and labels:
NR1/NR2B [1] = target: NR1/NR2B (Homo sapiens (Human), UniProt Q13224); test: Cell assay: FDSS Ca2+ influx inhibition in HEK293 cells expressing NR1/NR2B;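 also: Fluo-8 Ca2+ signal read on Hamamatsu FDSS 6000 after glutamate, glycine and Ca2+ challenge following 10 min compound preincubation, end/baseline fluorescence ratio compared with MK801 control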
Description: (§1) Cell Culture and plating: HEK293 cells expressing NR1/NR2B (Chantest, Cleveland, Ohio) were grown to 70-80% confluency as an adherent monolayer in standard tissue culture flasks at 37° C., 5% CO2 per supplier's instructions. NR2B expression was induced by incubation with 0.3-0.4 μg/ml tetracycline in the presence of 4 mM ARL-15896 for 18-24 hours under the same growth conditions, then transferred to 30° C. for another 3-5 hours.
(§2) After induction, cell culture medium was removed and cells were rinsed once with Ca^2+ and Mg^2+-free Dulbecco's phosphate buffered saline. Cells were then removed from the flask using TrypLE™ Express (Life Technologies) according to the manufacturer's instructions and collected to 50 ml centrifuge tubes. Following two washes in Ca^2+/Mg^2+-free HBSS with 20 mM HEPES (HHnoCa), cells were counted and viability assessed using trypan blue. To load cells with Ca^2+-sensitive dye, they were resuspended in fluo-8 plus Component B (AAT Bioquest Products) diluted in HHnoCa and incubated 15 minutes at 37° C., followed by 30 minutes at room temp (in dark). Cells were then washed and resuspended in HHnoCa to remove extracellular dye and plated in 384-well plates (Falcon, uncoated) at 20,000-30,000 cells/well in a final volume of 25 μl/well.
(§3) FDSS Assay: To each well of the plate, 10 μL test compound, control (MK801) or HHnoCa buffer was added to a final concentration of 10 μM with a final concentration of DMSO of 0.1%. Following 10 minutes pre-incubation in the dark, plates are loaded onto the Hamamatsu FDSS 6000. After collecting baseline fluorescence images, 3 μM glutamate, 3 glycine, and 1 mM Ca^2+ in HHnoCa buffer is added to each well, and Ca^2+ is recorded for 3 minutes. Data were processed by computing ratio of fluorescence at the end of data collection to baseline fluorescence to assess degree of Ca′ influx inhibition relative to that observed in MK801.

NR1/NR2B [2] = target: NR1/NR2B (Homo sapiens (Human), UniProt Q05586+Q13224); test: as above; conditions: Ca2+ influx
Description: as §1, §2, §3

[3] = read-out: Binned Activity, HEK293 cells expressing NR1/NR2B, Ca2+ influx, binned NR2B NAM IC50
[4] = read-out: NR2B NAM IC50, HEK293 cells expressing NR1/NR2B, Ca2+ influx
[5] = NR2B NAM IC50, HEK293 cells expressing NR1/NR2B
[6] = Binned Activity, HEK293 cells expressing NR1/NR2B, binned NR2B NAM IC50

Sequence of NR1/NR2B (Homo sapiens (Human), UniProt Q13224) (Q13224 27-1484, other chains not shown): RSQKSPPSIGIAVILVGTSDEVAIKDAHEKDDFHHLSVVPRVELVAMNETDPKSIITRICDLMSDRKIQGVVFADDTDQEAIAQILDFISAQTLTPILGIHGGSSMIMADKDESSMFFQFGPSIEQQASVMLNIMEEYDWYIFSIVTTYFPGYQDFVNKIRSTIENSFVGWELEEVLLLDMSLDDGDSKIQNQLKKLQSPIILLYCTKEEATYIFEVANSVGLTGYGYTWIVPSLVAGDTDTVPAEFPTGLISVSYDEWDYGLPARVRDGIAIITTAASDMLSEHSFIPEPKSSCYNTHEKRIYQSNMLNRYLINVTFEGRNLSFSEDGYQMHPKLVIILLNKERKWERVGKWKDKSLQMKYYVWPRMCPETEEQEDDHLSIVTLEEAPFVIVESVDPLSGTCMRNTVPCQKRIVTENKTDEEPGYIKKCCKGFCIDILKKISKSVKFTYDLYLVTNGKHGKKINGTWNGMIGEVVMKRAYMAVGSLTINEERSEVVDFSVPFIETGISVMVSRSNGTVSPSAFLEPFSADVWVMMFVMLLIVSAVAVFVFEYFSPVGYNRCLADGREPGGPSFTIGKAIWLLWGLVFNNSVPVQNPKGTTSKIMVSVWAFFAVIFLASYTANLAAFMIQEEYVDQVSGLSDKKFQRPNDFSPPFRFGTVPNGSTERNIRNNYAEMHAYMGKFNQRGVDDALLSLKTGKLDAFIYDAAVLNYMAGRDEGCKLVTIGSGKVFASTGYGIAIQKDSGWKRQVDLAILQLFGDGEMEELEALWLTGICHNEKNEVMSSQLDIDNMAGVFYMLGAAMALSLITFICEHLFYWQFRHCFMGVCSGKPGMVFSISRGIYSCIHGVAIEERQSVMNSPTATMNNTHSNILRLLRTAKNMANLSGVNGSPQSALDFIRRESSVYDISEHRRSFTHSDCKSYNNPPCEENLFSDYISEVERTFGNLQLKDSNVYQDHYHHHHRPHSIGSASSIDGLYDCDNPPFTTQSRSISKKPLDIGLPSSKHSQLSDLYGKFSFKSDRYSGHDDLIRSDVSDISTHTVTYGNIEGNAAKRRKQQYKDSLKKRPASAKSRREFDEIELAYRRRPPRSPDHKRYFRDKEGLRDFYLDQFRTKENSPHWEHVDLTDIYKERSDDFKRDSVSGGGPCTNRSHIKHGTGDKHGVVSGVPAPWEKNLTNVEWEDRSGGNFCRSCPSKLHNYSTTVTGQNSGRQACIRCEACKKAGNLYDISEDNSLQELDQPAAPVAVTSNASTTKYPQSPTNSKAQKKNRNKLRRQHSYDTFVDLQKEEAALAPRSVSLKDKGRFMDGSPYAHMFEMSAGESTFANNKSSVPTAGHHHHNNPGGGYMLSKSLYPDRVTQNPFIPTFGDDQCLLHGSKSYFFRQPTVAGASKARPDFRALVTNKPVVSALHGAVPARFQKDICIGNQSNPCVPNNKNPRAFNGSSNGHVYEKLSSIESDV
Sequence of NR1/NR2B (Homo sapiens (Human), UniProt Q05586+Q13224) (Q13224 27-1484, other chains not shown): as above

| SMILES | IC50 (NR1/NR2B [2]; [5]) [µM] | IC50 (NR1/NR2B [2]; [6]) [µM] | also measured |
| --- | --- | --- | --- |
| OC(CN1C[C@@H]2CC(O)(Cc3ccccc3)C[C@@H]2C1)c1ccc(F)cc1 (mixture of isomers) [Example 289, rac-(3aR,5r,6aS)-5-benzyl-2-(2-(4-fluorophenyl)-2-hydroxyethyl)octahydro-cyclopenta[c]pyrrol-5-ol] |  |  | IC50 (NR1/NR2B [1]; [3]): > 10 µM; IC50 (NR1/NR2B [1]; [4]): 10 µM |
| COc1cccc([C@]2(O)C[C@H]3CN(C(=O)Nc4cccnc4)C[C@H]3C2)c1 [Cmpd 46, 5-hydroxy-5-(3-methoxyphenyl)-N-(pyridin-3-yl)-octahydrocyclopenta[c] pyrrole-2-carboxamide] |  | > 10 |  |
| COc1ccc(NC(=O)N2C[C@@H]3C[C@@](O)(c4ccccc4)C[C@@H]3C2)cc1 [Example 1, 5-hydroxy-N-(4-methoxyphenyl)-5-phenylhexahydrocyclopenta[c]pyrrole-2(1H)-carboxamide] |  | > 10 | IC50 (NR1/NR2B [1]; [4]): 10 µM |
| COc1ccc(NC(=O)N2C[C@@H]3C[C@@](O)(c4ccc(C#N)cc4)C[C@@H]3C2)cc1 [Example 2, 5-(4-cyanophenyl)-5-hydroxy-N-(4-methoxyphenyl)-octahydrocyclopenta[c] pyrrole-2-carboxamide] |  | > 10 | IC50 (NR1/NR2B [1]; [4]): 10 µM |
| Cc1ccc(NC(=O)N2C[C@@H]3C[C@@](O)(c4ccccc4)C[C@@H]3C2)cc1 [Example 3, 5-hydroxy-N-(4-methylphenyl)-5-phenyl-octahydrocyclopenta[c] pyrrole-2-carboxamide] |  | > 10 | IC50 (NR1/NR2B [1]; read-out: NR2B NAM IC50): 10 µM |
| O=C(Nc1cccc(Cl)c1)N1C[C@@H]2C[C@@](O)(c3ccccc3)C[C@@H]2C1 [Example 4, N-(3-chlorophenyl)-5-hydroxy-5-phenyl-octahydrocyclopenta[c] pyrrole-2-carboxamide] |  | > 10 | IC50 (NR1/NR2B [1]; [4]): 10 µM |
| O=C(Nc1cccc(C(F)(F)F)c1)N1C[C@@H]2C[C@@](O)(c3ccccc3)C[C@@H]2C1 [Example 5, 5-hydroxy-5-phenyl-N-[3-(trifluoromethyl)phenyl]-octahydrocyclopenta[c] pyrrole-2-carboxamide] |  | > 10 | IC50 (NR1/NR2B [1]; [4]): 10 µM |
| O=C(Nc1ccc(F)cc1)N1C[C@@H]2C[C@@](O)(c3ccccc3)C[C@@H]2C1 [Example 6] |  | > 10 | IC50 (NR1/NR2B [1]; [4]): 10 µM |
| COc1cccc(NC(=O)N2C[C@@H]3C[C@@](O)(c4ccccc4)C[C@@H]3C2)c1 [Example 7] | ≥ 10 | > 10 |  |
| COc1ccc(NC(=O)N2C[C@@H]3C[C@@](O)(c4ccccc4C)C[C@@H]3C2)cc1 [Example 8] | ≥ 10 | > 10 |  |
| Cc1ccccc1[C@]1(O)C[C@H]2CN(C(=O)Nc3cccc(Cl)c3)C[C@H]2C1 [Example 11] |  | > 10 |  |
| COc1ccc(NC(=O)N2C[C@@H]3C[C@@](O)(c4cccc(OC)c4)C[C@@H]3C2)cc1 [Example 17, 5-hydroxy-5-(3-methoxyphenyl)-N-(4-methoxyphenyl)-octahydrocyclopenta[c] pyrrole-2-carboxamide] |  | > 10 |  |
| C[C@@H](NC(=O)N1C[C@@H]2C[C@@](O)(c3ccccc3)C[C@@H]2C1)c1ccc(Cl)cc1 [Example 20, N-[(1R)-1-(4-chlorophenyl)ethyl]-5-hydroxy-5-phenyl-octahydrocyclopenta[c] pyrrole-2-carboxamide] |  | > 10 |  |
| N#Cc1cccc(NC(=O)N2C[C@@H]3C[C@@](O)(c4ccc(F)cc4)C[C@@H]3C2)c1 [Example 40] |  | > 10 |  |
| COC(=O)c1ccc(NC(=O)N2C[C@@H]3C[C@@](O)(c4ccc(C(C)(C)C)cc4)C[C@@H]3C2)cc1 [Example 50] |  | > 10 |  |
| O=C(CN1CC2CC(O)(c3ccccc3)CC2C1)c1ccccc1 (centres unmarked) [Example 57, 2-(5-hydroxy-5-phenylhexahydrocyclo-penta[c]pyrrol-2(1H)-yl)-1-phenylethanone] |  |  | IC50 (NR1/NR2B [1]; [3]): > 10 µM; IC50 (NR1/NR2B [1]; [4]): 10 µM |
| Oc1ccc([C@H](O)CN2C[C@@H]3C[C@@](O)(Cc4ccccc4)C[C@@H]3C2)cc1 [Example 143, (3aR,5S,6aS)-5-benzyl-2-((S)-2-hydroxy-2-(4-hydroxyphenyl)ethyl)octa-hydrocyclopenta[c]pyrrol-5-ol] |  |  | IC50 (NR1/NR2B [1]; [3]): < 0.1 µM |
| O=C(CN1CC2CC(Cc3ccccc3)CC2C1)c1ccc(O)cn1 (centres unmarked) [Example 297, 2-{5-benzyl-octahydrocyclopenta[c]pyrrol-2-yl}-1-(5-hydroxypyridin-2-yl)ethan-1-one] |  |  | IC50 (NR1/NR2B [1]; [3]): 0.1 to 1 µM; IC50 (NR1/NR2B [1]; [4]): 0.792 µM |
| O=C(CN1CC2CC(Cc3ccccc3)CC2C1)c1ccc(O)c(F)c1 (centres unmarked) [Example 299, 2-{5-benzyl-octahydrocyclopenta[c]pyrrol-2-yl}-1-(3-fluoro-4-hydroxyphenyl) ethan-1-one] |  |  | IC50 (NR1/NR2B [1]; read-out: Binned Activity): < 0.1 µM; IC50 (NR1/NR2B [1]; read-out: NR2B NAM IC50): 0.0781 µM |
| O=C(CN1CC2CC(CCc3ccccc3)CC2C1)c1ccc(O)cc1 (centres unmarked) [Example 323, 1-(4-hydroxyphenyl)-2-(5-phenethyl-hexahydrocyclo-penta[c]pyrrol-2(1H)-yl)ethanone] |  |  | IC50 (NR1/NR2B [1]; [3]): 0.1 to 1 µM; IC50 (NR1/NR2B [1]; [4]): 0.426 µM |

Continued, in another order:

| IC50 (NR1/NR2B [2]; [5]) [µM] | IC50 (NR1/NR2B [2]; [6]) [µM] | SMILES | also measured |
| --- | --- | --- | --- |
| 0.38 |  | Oc1ccc(C(O)CN2C[C@H]3CN(Cc4ccccc4)C[C@H]3C2)nc1 (mixture of isomers) [Example 329, rac-6-(2-(5-benzylhexahydropyrrolo [3,4-c]pyrrol-2(1H)-yl)-1-hydroxyethyl) pyridin-3-ol] |  |
| 0.0743 | < 0.1 | Oc1ccc(C(O)CN2C[C@H]3CN(Cc4ccccc4)C[C@H]3C2)cc1F (mixture of isomers) [Example 341, rac-4-(2-(5-benzylhexahydropyrrolo [3,4-c]pyrrol-2(1H)-yl)-1-hydroxyethyl)-2-fluorophenol] |  |
| 0.506 |  | Oc1ccc(C(O)CN2CC3(C2)CC(O)(Cc2ccccc2)C3)cc1 (racemic) [Example 343, rac-6-benzyl-2-(2-hydroxy-2-(4-hydroxyphenyl)ethyl)-2-azaspiro[3.3]heptan-6-ol] |  |
|  | > 10 | Cc1ccc(NC(=O)N2C[C@@H]3C[C@@](O)(c4ccccc4C)C[C@@H]3C2)cc1 [Example 9] |  |
| ≥ 10 | > 10 | Cc1ccccc1[C@]1(O)C[C@H]2CN(C(=O)Nc3ccc(F)cc3)C[C@H]2C1 [Example 13] |  |
| ≥ 10 | > 10 | COc1cccc([C@]2(O)C[C@H]3CN(C(=O)Nc4ccc(C)cc4)C[C@H]3C2)c1 [Example 14] |  |
|  | > 10 | COc1cccc([C@]2(O)C[C@H]3CN(C(=O)Nc4cccc(Cl)c4)C[C@H]3C2)c1 [Example 15] |  |
| ≥ 10 | > 10 | COc1cccc([C@]2(O)C[C@H]3CN(C(=O)Nc4cccc(C(F)(F)F)c4)C[C@H]3C2)c1 [Example 16] |  |
|  | > 10 | COc1ccccc1CNC(=O)N1C[C@@H]2C[C@@](O)(c3ccccc3)C[C@@H]2C1 [Example 21, 5-hydroxy-N-[(2-methoxyphenyl)methyl]-5-phenyl-octahydrocyclopenta[c] pyrrole-2-carboxamide] |  |
|  | > 10 | Cc1ccccc1[C@]1(O)C[C@H]2CN(C(=O)Nc3cccc(C#N)c3)C[C@H]2C1 [Example 31, N-(3-cyanophenyl)-5-hydroxy-5-(2-methylphenyl)-octahydrocyclopenta[c] pyrrole-2-carboxamide] |  |
|  | > 10 | COc1cccc([C@]2(O)C[C@H]3CN(C(=O)Nc4ccc(Cl)c(C(F)(F)F)c4)C[C@H]3C2)c1 [Example 34, N-[4-chloro-3-(trifluoromethyl)phenyl]-5-hydroxy-5-(3-methoxyphenyl)-octahydrocyclopenta[c] pyrrole-2-carboxamide] |  |
|  | > 10 | O=C(Nc1ccc(F)cc1)N1C[C@@H]2C[C@@](O)(c3ccc(F)cc3)C[C@@H]2C1 [Example 35, N,5-bis(4-fluorophenyl)-5-hydroxy-octahydrocyclopenta[c] pyrrole-2-carboxamide] |  |
|  | > 10 | COc1cccc(NC(=O)N2C[C@@H]3C[C@@](O)(c4ccc(F)cc4)C[C@@H]3C2)c1 [Example 37] |  |
| ≥ 10 | > 10 | O=C(Nc1cccc(C(F)(F)F)c1)N1C[C@@H]2C[C@@](O)(c3ccc(F)cc3)C[C@@H]2C1 [Example 38] |  |
| ≥ 10 | > 10 | O=C(Nc1cccc(Cl)c1)N1C[C@@H]2C[C@@](O)(c3ccc(F)cc3)C[C@@H]2C1 [Example 39] |  |
| ≥ 10 | > 10 | O=C(Nc1cccnc1)N1C[C@@H]2C[C@@](O)(c3ccc(F)cc3)C[C@@H]2C1 [Example 41] |  |
| ≥ 10 | > 10 | O=C(Nc1ccc(Cl)c(C(F)(F)F)c1)N1C[C@@H]2C[C@@](O)(c3ccc(F)cc3)C[C@@H]2C1 [Example 43] |  |
| ≥ 10 | > 10 | Cc1ccc(NC(=O)N2C[C@@H]3C[C@@](O)(c4ccccc4)C[C@@H]3C2)c(C)c1 [Example 47] |  |
| ≥ 10 | > 10 | COc1cccc([C@]2(O)C[C@H]3CN(C(=O)Nc4ccc(C)cc4C)C[C@H]3C2)c1 [Example 49] |  |
| ≥ 10 | > 10 | COc1cccc(NC(=O)N2C[C@@H]3C[C@@](O)(c4ccc(C(C)(C)C)cc4)C[C@@H]3C2)c1 [Example 51] |  |
|  | > 10 | CC(C)(O)c1ccc(C(=O)CN2C[C@@H]3C[C@@](O)(c4ccccc4)C[C@@H]3C2)cc1 [Example 68, 2-(5-hydroxy-5-phenylhexahydrocyclo-penta[c]pyrrol-2(1H)-yl)-2-(4-(2-hydroxypropan-2-yl)phenyl)ethanone] |  |
| ≥ 10 | > 10 | N#Cc1cccc(NC(=O)N2C[C@@H]3C[C@@](O)(Cc4ccccc4)C[C@@H]3C2)c1 [Example 123, (3aR,5r,6aS)-5-benzyl-N-(3-cyanophenyl)-5-hydroxyhexahydrocyclo-penta[c]pyrrole-2(1H)-carboxamide] |  |
|  | < 0.1 | Cc1ccc(C[C@]2(O)C[C@H]3CN(CC(=O)c4ccc(O)cc4)C[C@H]3C2)cc1 [Example 179] |  |
